According to US7915242B2, “Vitamin D receptor antagonists and their use in treating asthma” (Wisconsin Alumni Research Foundation, priority 2004, dated 2011):
Entries after “also recorded” stand apart in the source; their conditions may differ.

Assays:
mouse model of asthma = settings: Matheu et al., J Allergy Clin Immunol 112:585, 2003; cited from earlier work
Brown Norway rats = experiment: Ovalbumin-induced allergic asthma, BALF cell counts; type: in vivo, rat; settings: aerosolized 500 ng/Kg on Days 14 and 16
Method: 6-7 week old Brown Norway male rats were obtained from Harlan Sprague-Dawley (Madison, Wis.) and housed in shoebox cages. Animals were provided a purified rodent diet prepared in-house containing 0.47% calcium and 0.3% phosphorus, and water ad libitum. The diet was supplemented with 1.6 IU vitamin D3/g. Rats were sensitized on Days 0 and 7 with a 1 mL intraperitoneal (I.P.) injection of 1 mg/mL OVA in phosphate-buffered saline (PBS) precipitated 1:1 with Imject Alum (PIERCE, IL). Control animals were sensitized with PBS. The animals were then challenged with aerosolized OVA [1% (w/v)] or aerosolized PBS (control) on Days 14 and 16. This OVA-sensitization and -challenge protocol has been used extensively to generate asthma symptoms in rats. Aerosolized-PBS (200 μL) or aerosolized-OVA (200 μL) was delivered by using the Microsprayer Syringe Model 1C (PennCentury, Philadelphia, Pa.). Aerosolized-vehicle [aqueous solution containing 30% (v/v) propylene glycol and 5% ethanol], or aerosolized-1,25(OH)2D3 (500 ng/Kg of body weight) was administered on Days 14 and 16. There were 4 groups in the study. Group 1: Sensitized and challenged with PBS, no treatment. Group 2: Sensitized and challenged with OVA, no treatment. Group 3: Sensitized and challenged with OVA, vehicle treatment on Days 14 and 16. Group 4: Sensitized and challenged with OVA, 1,25(OH)2D3 treatment on Days 14 and 16. At the end of the study, 17 days after the first I.P. injection, lungs were lavaged five times with 5 mL/each of calcium- and magnesium-free PBS containing 0.05 mM EDTA (ethylenediamine tetraacetic acid). The lavage fluid was centrifuged at 1,000×g for 10 minutes. The supernatant was removed, and the cell pellet was resuspended in 1 mL cold PBS. Total cell counts in bronchoalveolar lavage fluid (BALF) was performed using a hemocytometer. Slides of BALF were prepared by cytospin-2 cytocentrifugation of an aliquot of the cell suspension, and a differential cell count to determine the number of leukocytes was performed after staining with Diff-Quick (IMED, Inc., CA).

BALBc mice = experiment: Asthma model, ovalbumin-sensitized mice; type: in vivo, mouse; settings: preliminary work
Method: The fourth test performed on the analogs is treatment using an asthma model. For this test, BALBc mice are injected for 7 days with 10 micrograms of ovalbumin together with alum to sensitize the animals. These are given by intraperitoneal injection and at the end of 7 days, the asthmatic reaction to an inhaled dose of ovalbumin is examined. In this test, the ovalbumin as a 0.2% solution is delivered by nebulizer to the mouse. Air flow measures are carried out as described by Isenberg-Feig et al. in Current Allergy and Asthma Reports, 3:70-78 (2003) which is hereby incorporated by reference in its entirety and for all purposes as if fully set forth herein. Furthermore, the lungs are removed and sectioned for analysis. The degree of invasion of eosinophils into the bronchial tissue is used as a non-subjective measurement of asthmatic response. After the animals are sensitized and given the expected responses to ovalbumin, the animals are subjected to an aerosol that includes either a vitamin D antagonist of the invention or 1α,25-(OH)2D3. After exposure to the vitamin D antagonist of the invention or the 1α,25-(OH)2D3, the animals will be exposed to a nebulized dose of 0.2% ovalbumin. The presence of the antagonist will be found to block the asthmatic response to the inhaled ovalbumin. […]

[1] = test system: vitamin D 24-hydroxylase (CYP24) promoter luciferase reporter; experiment: Competition for transcription activity, analog plus 1,25(OH)2D3 in the reporter gene assay; type: cell-based; settings: with 1α,25-dihydroxyvitamin D3; FIGS. 5-6
Method: Antagonism is/was tested by adding a combination of 1,25(OH)2D3 and the putative antagonist in the same well keeping the ethanol concentration the same.
The third test that is performed is competition for transcription activity. Again, the ROS-17/2.8 osteoblast cells that contain the reporter gene system described above are employed. A dose-response curve is constructed with 1α,25-(OH)2D3 and another 1α,25-(OH)2D3 dose response curve is prepared with increasing concentrations of antagonist or analogs of the invention. Analogs that prevent 1α,25-(OH)2D3-induced transcription, are defined using this technique as either weak agonist or a complete antagonist of the VDR for 1α,25-(OH)2D3.

[2] = test system: vitamin D 24-hydroxylase (CYP24) promoter luciferase reporter; experiment: Reporter gene assay, CYP24 promoter-luciferase in ROS-17/2.8 osteoblast cells; type: cell-based; settings: Ros17/2.8 (bone) cells; FIG. 4
Description: A reporter gene assay is/was used in which the promoter to the vitamin D 24-hydroxylase, i.e. CYP24 is/was placed in front of a luciferase reporter and is/was permanently transfected into ROS-17/2.8 osteoblast cell cultures as previously described (see Arbour, N. C., T. K. Ross, C. Zierold, J. M. Prahl, and H. F. DeLuca. A Highly Sensitive Method for Large-Scale Measurements of 1,25-Dihydroxyvitamin D. Analyt. Biochem. 255, 148-154, (1998) which is hereby incorporated by reference in its entirety and for all purposes as if fully set forth herein). These cells are/were grown to almost confluency at which time the analog or the standard 1α,25-(OH)2D3 is/was added. After 4 hours of incubation, the cells are/were ruptured and luciferase is/was measured by the methods provided by the Promega Kit. These experiments show the level of activity of the vitamin D analogs of the invention at transcription.
The phrase “RLU” refers to relative luciferase units.

[3] = test system: Human promyelocytic leukemia (HL60) cells; experiment: HL-60 cellular differentiation test (NBT reduction); type: cell-based; settings: relative to 1α,25-dihydroxyvitamin D3; FIGS. 2-3
Method: The compounds of the invention are/were dissolved in ethanol and the concentrations are/were determined using UV spectrophotometry. Serial dilutions are/were prepared so that a range of drug concentrations can be tested without changing the final concentration of ethanol (≦0.2%) present in the cell cultures.
Antagonism is/was tested by adding a combination of 1,25(OH)2D3 and the putative antagonist in the same well keeping the final ethanol concentration the same.
Human promyelocytic leukemia (HL60) cells are/were grown in RPMI-1640 medium containing 10% fetal bovine serum. The cells are/were incubated at 37° C. in the presence of 5% CO2.
HL60 cells are/were plated at 1.2×10^5 cells/mL. Eighteen hours after plating, cells in duplicate are/were treated with compound of the invention in ethanol. Four days post-dose, the cells are/were harvested and a nitro blue tetrazolium reduction assay is/was performed (Collins et al., J. Exp. Med. 149, 969-974, Appendix A (1979)). The percentage of differentiated cells is/was determined by counting a total of 200 cells and recording the number that contained intracellular black-blue formazan deposits. Verification of differentiation to monocytic cells is/was determined by measuring phagocytic activity. All drug concentrations are/were tested in duplicate.

[4] = target: T1, full-length recombinant rat vitamin D receptor (Rattus norvegicus, UniProt P13053); experiment: Vitamin D receptor binding assay, competition with [3H]-1,25(OH)2D3; settings: relative to 1α,25-dihydroxyvitamin D3; FIG. 1
T1 construct: Full-length recombinant rat receptor is/was expressed in E. coli BL21(DE3) Codon Plus RIL cells; histidine tag (C); made in house; host or cells: E. coli BL21(DE3) Codon Plus RIL
T1 sequence (P13053 1-423): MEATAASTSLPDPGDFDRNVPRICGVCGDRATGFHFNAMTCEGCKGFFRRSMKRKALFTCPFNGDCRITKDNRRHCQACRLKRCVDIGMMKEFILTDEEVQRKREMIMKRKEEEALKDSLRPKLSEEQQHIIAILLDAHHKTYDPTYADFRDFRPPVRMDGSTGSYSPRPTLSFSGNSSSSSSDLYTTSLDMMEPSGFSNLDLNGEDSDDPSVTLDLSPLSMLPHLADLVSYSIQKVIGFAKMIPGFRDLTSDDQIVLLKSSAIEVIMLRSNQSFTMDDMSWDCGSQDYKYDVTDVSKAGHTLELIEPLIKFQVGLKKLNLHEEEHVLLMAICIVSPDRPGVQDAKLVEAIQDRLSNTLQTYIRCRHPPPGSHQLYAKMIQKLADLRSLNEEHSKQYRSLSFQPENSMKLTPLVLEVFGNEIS
Description: Full-length recombinant rat receptor is/was expressed in E. coli BL21(DE3) Codon Plus RIL cells and purified to homogeneity using two different column chromatography systems. The first system is/was a nickel affinity resin that utilizes the C-terminal histidine tag on this protein. The protein that is/was eluted from this resin is/was further purified using ion exchange chromatography (S-Sepharose Fast Flow). Aliquots of the purified protein are/were quick frozen in liquid nitrogen and stored at −80° C. until use. For use in binding assays, the protein is/was diluted in TEDK50 (50 mM Tris, 1.5 mM EDTA, pH 7.4, 5 mM DTT, 150 mM KCl) with 0.1% Chaps detergent. The receptor protein and ligan concentration is/was optimized such that no more than 20% of the added radiolabeled ligand is/was bound to the receptor.
Unlabeled ligands are/were dissolved in ethanol and the concentrations determined using UV spectrophotometry (1,25(OH)2D3: molar extinction coefficient=18,200 and λmax=265 nm; Analogs: molar extinction coefficient=42,000 and λmax=252 nm). […]
Radiolabeled and unlabeled ligands are/were added to 100 mcl of the diluted protein at a final ethanol concentration of ≦10%, mixed and incubated overnight on ice to reach binding equilibrium. […] Total binding is/was determined from the tubes containing only radiolabeled ligand.

Sprague-Dawley rats [5] = experiment: Intestinal calcium transport (everted gut sac); type: in vivo, rat; settings: four ip doses, FIG. 8
Method: (§1) Male, weanling Sprague-Dawley rats are/were placed on Diet 11 (0.47% Ca) diet +AEK for one week followed by Diet 11 (0.02% Ca) +AEK for 3 weeks. The rats are/were then switched to a diet containing 0.47% Ca for one week followed by two weeks on a diet containing 0.02% Ca. Dose administration began during the last week on 0.02% calcium diet. Four consecutive ip doses are/were given approximately 24 hours apart. Twenty-four hours after the last dose, blood is/was collected from the severed neck, and the concentration of serum calcium is/was determined as a measure of bone calcium mobilization. The first 10 cm of the intestine is/was also collected for intestinal calcium transport analysis using the everted gut sac method.
(§2) Antagonism is/was tested by administering a combination of 1,25(OH)2D3 and the putative antagonist to the animal simultaneously.

Sprague-Dawley rats [6] = experiment: Bone calcium mobilization (serum calcium); type: in vivo, rat; settings: four ip doses, even at 2,900 pmol/day, FIG. 7
Method: as §1, §2

Compound | asthma symptoms in a mouse model of asthma (mouse model of asthma) | total cell counts in BALF after OVA challenge (Brown Norway rats; FIG. 9) | number of eosinophils in BALF after OVA challenge (Brown Norway rats; FIG. 11) | number of macrophages in BALF after OVA challenge (Brown Norway rats; versus control (PBS), FIG. 10) | severity of the asthmatic response to ovalbumin (BALBc mice) | antagonistic activity on transcription when administered along with the native hormone [1] | in vitro transcription activity (reporter gene) [2] | induction of differentiation of HL-60 cells [3] | binding to the vitamin D receptor (competition with [3H]-1,25-(OH)2-D3) [4] | intestinal calcium transport (Sprague-Dawley rats [5]) | bone calcium mobilization (calcemic activity) (Sprague-Dawley rats [6])
C=C1/C(=C\C=C2/CCC[C@]3(C)[C@@H]([C@H](C)CCCC(C)(C)O)CC[C@@H]23)C[C@@H](O)C[C@@H]1O [1,25(OH)2D3, 1α,25-dihydroxycholecalciferol] | both triggers and exacerbates asthma symptoms | reduced; also recorded: inhibits the OVA (ovalbumin)-mediated increase in total number of cells in BALF | increased OVA-induced eosinophils recruitment; also recorded: increases the OVA-induced eosinophils count in BALF compared to the control | decreased the number of macrophages; also recorded: decreases the number of macrophages compared to the control | increases the severity of the asthmatic response to ovalbumin | – | – | – | – | – | –
C=C1[C@H](O)CC(=C/C=C2\CCC[C@]3(C)[C@@H]([C@H](C)/C=C/[C@@H](OCCCC)C4(C(=O)OCCCC)CC4)CC[C@@H]23)C[C@H]1O [CN-67, (22E)-(24R)-24-butoxy-25-carbobutoxy-2-methylene-26,27-cyclo-22-dehydro-1α-hydroxy-19-norvitamin D3] | – | – | – | – | – | appears to exhibit antagonistic activity | does not appear to be active in causing transcription | less active than 1α,25-dihydroxyvitamin D3 | significantly less active than 1α,25-dihydroxyvitamin D3 | – | –
C=C1[C@H](O)CC(=C/C=C2\CCC[C@]3(C)[C@@H]([C@H](C)/C=C/[C@@H](O)C4(C(=O)OCCCC)CC4)CC[C@@H]23)C[C@H]1O [OU-72, (22E)-(24R)-25-carbobutoxy-2-methylene-26,27-cyclo-22-dehydro-1α,24-dihydroxy-19-norvitamin D3] | – | – | – | – | – | shows antagonistic activity | active in stimulating transcription | less active than 1α,25-dihydroxyvitamin D3 | approximately equal to the native hormone | retain the ability to elevate intestinal calcium transport | no calcemic activity
